SMILES strings stand for the structures.

Assay [1] concerns HCV replicon I389luc-ubi-neo/NS3-3′/ET in ET (Huh-lucubineo-ET) cells. In words: Replicon assay (Biological Example 2), luciferase readout. In kind it is cell-based. As to conditions: Hepatitis C virus. In outline: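 EC50 values come from Hill fits of % inhibition of replicon-driven firefly luciferase, relative to no-compound wells. Compounds were serially diluted (10 points, 3-fold, 0.1 nM–50 μM final, 0.5% DMSO) onto ET replicon cells and read after 48 h.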
In general terms: In antiviral work, replicon cells carry a viral genome segment that copies itself.

Assay [2] addresses T1, HCV polymerase (Hepatitis C virus genotype 1b, UniProt Q9WMX2).
T1 construct: (His)6 (C); made in house; host or cells: XL-1 cells (E. coli, by own knowledge)
The assay is described as follows: Polymerase assay of Biological Example 1 (IC50 values of Table 3). It is filed as biochemical. As to conditions: IC50 values of Table 3, polymerase assay of Biological Example 1; read-out: NS5B-enzyme3.

Setting [3] is: ET cells, luciferase activity 48 hours after compound.

With `CC1(NC(=O)OC(C)(C)C)CCN(c2ccc(S(=O)(=O)N3CC(=O)N(c4cc(-c5ccccc5)sc4C(=O)O)[C@H](C4CCCCC4)C3)cn2)CC1` [Compound 153, 3-[(R)-4-(4-tert-Butoxycarbonylamino-4-methyl-3,4,5,6-tetrahydro-2H-[1,2′]bipyridinyl-5′-sulfonyl)-2-cyclohexyl-6-oxo-piperazin-1-yl]-5-phenyl-thiophene-2-carboxylic acid], the IC50 in assay [1] (between 100 nM and 5.0 uM) was 100 to 5000 nM; in assay [2] it was 4 nM.

For the molecule `CC(C)(C)C#Cc1cc(N2C(=O)[C@H](CCCO)OC[C@H]2C2CCCCC2)c(C(=O)O)s1` (single isomer, unassigned) [Compound 2], the IC50 was not above 100 nM in assay [1] (setting [3]) and 35 nM in assay [2].

On to `CC(C)(C)C#Cc1cc(N2C(=O)CN(S(=O)(=O)c3ccc(F)cc3)C[C@H]2C2CCCCC2)c(C(=O)O)s1` [Compound 243, 3-[(R)-2-Cyclohexyl-4-(4-fluoro-benzenesulfonyl)-6-oxo-piperazin-1-yl]-5-(3,3-dimethyl-but-1-ynyl)-thiophene-2-carboxylic acid], for which the results for the IC50 in assay [1] (setting [3]) and in assay [2] were not above 100 nM and 2 nM, respectively.

For `CC1CCC(C)N1c1ccc(S(=O)(=O)N2CC(=O)N(c3cc(-c4ccccc4)sc3C(=O)O)C(C3CCCCC3)C2)cn1` (stereo not drawn) [Compound 92, 3-{2-Cyclohexyl-4-[6-(2,5-dimethyl-pyrrolidin-1-yl)-pyridine-3-sulfonyl]-6-oxo-piperazin-1-yl}-5-phenyl-thiophene-2-carboxylic acid], the results for the IC50 in assay [1] (setting [3]) and in assay [2] were not above 100 nM and 4 nM, respectively.

On to `C[C@@H]1CCCN1c1ccc(S(=O)(=O)N2CC(=O)N(c3cc(-c4ccc(Cl)cc4)sc3C(=O)O)[C@H](C3CCCCC3)C2)cc1` [Compound 234, 5-(4-Chloro-phenyl)-3-{(R)-2-cyclohexyl-4-[4-((R)-2-methyl-pyrrolidin-1-yl)-benzenesulfonyl]-6-oxo-piperazin-1-yl}-thiophene-2-carboxylic acid], for which the IC50 in assay [1] (setting [3]) was not above 100 nM; in assay [2] it was 1 nM.

Consider `COc1cccc(S(=O)(=O)N2CC(=O)N(c3cc(C#CC(C)(C)C)sc3C(=O)O)[C@H](C3CCCCC3)C2)c1` [Compound 257, 3-[(R)-2-Cyclohexyl-4-(3-methoxy-benzenesulfonyl)-6-oxo-piperazin-1-yl]-5-(3,3-dimethyl-but-1-ynyl)-thiophene-2-carboxylic acid], for which the IC50 was not above 100 nM in assay [1] (setting [3]) and 2 nM in assay [2].

Regarding `CC(C)(C)C#Cc1cc(N2C(=O)CN(S(=O)(=O)c3ccc(OC(F)(F)F)cc3)C[C@H]2C2CCCCC2)c(C(=O)O)s1` [Compound 223, 3-[(R)-2-Cyclohexyl-6-oxo-4-(4-trifluoromethoxy-benzenesulfonyl)-piperazin-1-yl]-5-(3,3-dimethyl-but-1-ynyl)-thiophene-2-carboxylic acid], the IC50 in assay [1] (between 100 nM and 5.0 uM) was 100 to 5000 nM; in assay [2], 9 nM.

For `COc1ccc(S(=O)(=O)N2CC(=O)N(c3cc(C#CC(C)(C)C)sc3C(=O)O)[C@H](C3CCCCC3)C2)cc1OC` [Compound 277, 3-[(R)-2-Cyclohexyl-4-(3,4-dimethoxy-benzenesulfonyl)-6-oxo-piperazin-1-yl]-5-(3,3-dimethyl-but-1-ynyl)-thiophene-2-carboxylic acid], the IC50 in assay [1] (setting [3]) was not above 100 nM; in assay [2], 2 nM.

Turning to `O=C(O)c1sc(-c2ccccc2)cc1N1C(=O)CN(S(=O)(=O)c2ccc(N3CCCC3)nc2)CC1C1CCCCC1` (stereo not drawn) [Compound 76, 3-[2-Cyclohexyl-6-oxo-4-(6-pyrrolidin-1-yl-pyridine-3-sulfonyl)-piperazin-1-yl]-5-phenyl-thiophene-2-carboxylic acid], the IC50 was not above 100 nM in assay [1] (setting [3]) and 4 nM in assay [2].

With `Cc1noc(C)c1S(=O)(=O)N1CC(=O)N(c2cc(-c3ccccc3)sc2C(=O)O)C(C2CCCCC2)C1` (stereo not drawn) [Compound 32, 3-[2-Cyclohexyl-4-(3,5-dimethyl-isoxazole-4-sulfonyl)-6-oxo-piperazin-1-yl]-5-phenyl-thiophene-2-carboxylic acid], the IC50 in assay [1] (setting [3]) is not below 5000 nM; in assay [2] it was 241 nM.

Take `CCc1ccc(S(=O)(=O)N2CC(=O)N(c3cc(-c4ccccc4)sc3C(=O)O)C(C3CCCCC3)C2)cc1` (single isomer, unassigned) [Compound 55, 3-[2-Cyclohexyl-4-(4-ethyl-benzenesulfonyl)-6-oxo-piperazin-1-yl]-5-phenyl-thiophene-2-carboxylic acid]: the IC50 in assay [1] (between 100 nM and 5.0 uM) was 100 to 5000 nM; in assay [2], 71 nM.

Take `Cc1ccc(-c2cc(N3C(=O)C(C)(C)OC[C@H]3C3CCCCC3)c(C(=O)O)s2)cc1` [Compound 314, 3-((R)-5-Cyclohexyl-2,2-dimethyl-3-oxo-morpholin-4-yl)-5-p-tolyl-thiophene-2-carboxylic acid]: the IC50 was not above 100 nM in assay [1] (setting [3]) and 6 nM in assay [2].

For `CC(=O)N1CCN(c2ccc(S(=O)(=O)N3CC(=O)N(c4cc(-c5ccccc5)sc4C(=O)O)C(C4CCCCC4)C3)cn2)CC1` (stereo not drawn) [Compound 89, 3-{4-[6-(4-Acetyl-piperazin-1-yl)-pyridine-3-sulfonyl]-2-cyclohexyl-6-oxo-piperazin-1-yl}-5-phenyl-thiophene-2-carboxylic acid], the results for the IC50 in assay [1] (setting [3]) and in assay [2] were not above 100 nM and 3 nM, respectively.

Regarding `COCCNCC1OC[C@@H](C2CCCCC2)N(c2cc(C#CC(C)(C)C)sc2C(=O)O)C1=O` (stereo partly drawn) [Compound 307, 3-{(R)-5-Cyclohexyl-2-[(2-methoxy-ethylamino)-methyl]-3-oxo-morpholin-4-yl}-5-(3,3-dimethyl-but-1-ynyl)-thiophene-2-carboxylic acid], the IC50 in assay [1] (setting [3]) is not above 100 nM; in assay [2], 6 nM.

As to `O=C(O)c1sc(-c2ccc(Cl)cc2)cc1N1C(=O)CN(S(=O)(=O)c2ccc(N3CCCC3)cc2)C[C@H]1C1CCCCC1` [Compound 231, 5-(4-Chloro-phenyl)-3-[(R)-2-cyclohexyl-6-oxo-4-(4-pyrrolidin-1-yl-benzenesulfonyl)-piperazin-1-yl]-thiophene-2-carboxylic acid], the IC50 in assay [1] (setting [3]) is not above 100 nM; in assay [2], 1 nM.

For `CC(C)(C)C#Cc1cc(N2C(=O)CN(S(=O)(=O)c3ccc(N4CCOCC4)nc3)CC2C2CCCCC2)c(C(=O)O)s1` (stereo not drawn) [Compound 168, 3-[2-Cyclohexyl-4-(6-morpholin-4-yl-pyridine-3-sulfonyl)-6-oxo-piperazin-1-yl]-5-(3,3-dimethyl-but-1-ynyl)-thiophene-2-carboxylic acid], the values for the IC50 in assay [1] (setting [3]) and in assay [2] were not above 100 nM and 3820 nM, respectively.

On to `CC(C)(C)C#Cc1cc(N2C(=O)C(O)(CCCO)CCC2C2CCCCC2)c(C(=O)O)s1` (stereo not drawn) [Compound 11, 3-[6-Cyclohexyl-3-hydroxy-3-(3-hydroxy-propyl)-2-oxo-piperidin-1-yl]-5-(3,3-dimethyl-but-1-ynyl)-thiophene-2-carboxylic acid], for which the IC50 in assay [1] (setting [3]) is not above 100 nM; in assay [2] it was 8 nM.

Turning to `CC(C)(C)C#Cc1cc(N2C(=O)CN(S(=O)(=O)c3c(F)cccc3F)C[C@H]2C2CCCCC2)c(C(=O)O)s1` [Compound 251, 3-[(R)-2-Cyclohexyl-4-(2,6-difluoro-benzenesulfonyl)-6-oxo-piperazin-1-yl]-5-(3,3-dimethyl-but-1-ynyl)-thiophene-2-carboxylic acid], the IC50 was not above 100 nM in assay [1] (setting [3]) and 4 nM in assay [2].

The values above are taken from patent US9498483B2, “2,3,5-trisubstituted thiophene compounds and uses thereof” (priority 2010, dated 2016).
